Results from ChEMBL document CHEMBL1146804, “Estrogen receptor ligands. Part 6: Synthesis and binding affinity of dihydrobenzodithiins” (Bioorg Med Chem Lett, 2004).

Experiments:
MCF7 [1] = assay: Inhibition of MCF-7 cancer cell proliferation; assay type: functional, cell-based; settings: Homo sapiens
Estrogen receptor = target: T1, Estrogen receptor (Homo sapiens, UniProt P03372)
T1 sequence (P03372 whole entry): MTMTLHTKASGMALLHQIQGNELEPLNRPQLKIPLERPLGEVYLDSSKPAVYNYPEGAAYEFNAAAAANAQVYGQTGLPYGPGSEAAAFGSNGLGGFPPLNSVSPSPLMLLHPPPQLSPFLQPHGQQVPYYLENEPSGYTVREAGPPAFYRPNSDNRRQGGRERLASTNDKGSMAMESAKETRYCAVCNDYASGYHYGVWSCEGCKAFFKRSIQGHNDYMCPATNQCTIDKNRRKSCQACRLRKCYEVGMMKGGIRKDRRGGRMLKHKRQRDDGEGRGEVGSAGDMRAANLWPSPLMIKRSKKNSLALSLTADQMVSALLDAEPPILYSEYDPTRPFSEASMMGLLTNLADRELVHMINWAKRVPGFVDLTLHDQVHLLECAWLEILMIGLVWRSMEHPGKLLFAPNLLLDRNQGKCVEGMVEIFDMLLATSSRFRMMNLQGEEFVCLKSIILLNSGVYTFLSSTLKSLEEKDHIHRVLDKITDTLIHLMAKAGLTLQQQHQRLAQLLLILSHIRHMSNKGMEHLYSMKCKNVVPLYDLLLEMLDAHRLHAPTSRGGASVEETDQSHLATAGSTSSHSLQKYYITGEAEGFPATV
Description: Binding affinity for human estrogen receptor alpha

Estrogen receptor beta = Estrogen receptor beta (Homo sapiens, UniProt Q92731)
Description: Binding affinity for human estrogen receptor beta

MCF7 [2] = assay: Inhibition of MCF-7 cancer cell proliferation; Average of 7 measurements; assay type: functional, cell-based; settings: Homo sapiens
MCF7 [3] = assay: Inhibition of MCF-7 cancer cell proliferation; Average of 5 measurements; assay type: functional, cell-based; settings: Homo sapiens
MCF7 [4] = assay: Inhibition of MCF-7 cancer cell proliferation; Average of 2 measurements; assay type: functional, cell-based; settings: Homo sapiens

Estrogen receptor beta, sequence (Q92731 whole entry): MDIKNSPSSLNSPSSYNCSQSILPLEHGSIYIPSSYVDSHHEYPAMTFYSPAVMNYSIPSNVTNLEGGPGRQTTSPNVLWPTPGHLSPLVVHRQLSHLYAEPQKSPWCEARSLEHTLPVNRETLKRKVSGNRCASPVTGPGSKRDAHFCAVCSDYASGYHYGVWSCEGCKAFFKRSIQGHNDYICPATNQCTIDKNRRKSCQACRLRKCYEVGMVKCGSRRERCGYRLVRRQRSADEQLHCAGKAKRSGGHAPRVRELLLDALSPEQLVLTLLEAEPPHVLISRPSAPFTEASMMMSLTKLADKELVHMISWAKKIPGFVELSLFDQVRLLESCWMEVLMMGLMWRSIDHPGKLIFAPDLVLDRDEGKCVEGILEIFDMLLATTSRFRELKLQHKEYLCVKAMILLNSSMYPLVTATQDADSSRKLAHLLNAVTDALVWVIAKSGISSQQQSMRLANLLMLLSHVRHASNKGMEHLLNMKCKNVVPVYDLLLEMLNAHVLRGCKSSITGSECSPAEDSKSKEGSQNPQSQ

IC50 (MCF7 [1])	IC50 (Estrogen receptor)	IC50 (Estrogen receptor beta)	IC50 (MCF7 [2])	IC50 (MCF7 [3])	IC50 (MCF7 [4])	Compound
67 nM	5 nM	111 nM				Oc1ccc([C@H]2Sc3cc(O)ccc3S[C@H]2c2ccc(OCCN3CCCCC3)c(Br)c2)cc1
123 nM	18 nM	266 nM				Oc1ccc([C@H]2Sc3cc(O)ccc3S[C@H]2c2ccc(OCCN3CCCC3)cc2)cc1
			3 nM			Oc1ccc([C@H]2Sc3cc(O)ccc3O[C@H]2c2ccc(OCCN3CCCCC3)cc2)cc1
	1 nM	38 nM		0.6 nM		Oc1cccc([C@H]2Sc3cc(O)ccc3O[C@H]2c2ccc(OCCN3CCCC3)cc2)c1
112 nM	21 nM	326 nM				Oc1ccc([C@H]2Sc3cc(O)ccc3S[C@H]2c2ccc(OCCN3CCCCC3)cc2)cc1
564 nM	15 nM	583 nM				Oc1cccc([C@H]2Sc3cc(O)ccc3S[C@H]2c2ccc(OCCN3CCCCC3)cc2)c1
	4 nM				0.4 nM	Oc1cccc([C@H]2Sc3cc(O)ccc3O[C@H]2c2ccc(OCCN3CCCCC3)cc2)c1

Compound	IC50 (MCF7 [1])	IC50 (Estrogen receptor)	IC50 (Estrogen receptor beta)	IC50 (MCF7 [2])	IC50 (MCF7 [3])	IC50 (MCF7 [4])
Oc1ccc([C@H]2Sc3cc(O)ccc3S[C@H]2c2ccc(OCCN3CCCC3)c(Br)c2)cc1	114 nM	4 nM	87 nM			
Oc1cccc([C@H]2Sc3cc(O)ccc3S[C@H]2c2ccc(OCCN3CCCCC3)c(Br)c2)c1	152 nM	4 nM	161 nM			
